The source of these data is patent US12030908B2, “Antimicrobial compounds, compositions, and uses thereof” (Lakewood Amedex, Inc., priority 2017, dated 2024).

Where two headings read alike, the source gives them in different places.

For data set [1], the system named is Helicobacter pylori SS1 (CagA+, VacA+). Put plainly: Helicobacter pylori stomach infection model in mice, oral treatment. Format: in vivo, C57/BL6 mice. An excerpt: The mouse strain used in this study is C57/BL6 ranging from 5-6 weeks in age and 18-22 grams in weight. Mice are housed five to a cage with free access to food and water in accordance with NIH guidelines.
A bacterial strain of Helicobacter pylori SS1 (CagA+, VacA+) is adapted for the mouse model from a human clinical isolate and validated in this infection model.
At 6 days prior to infection, a frozen stock is streaked onto one to two Columbia 5% sheep blood agar plates, and the plates are microaerophilically incubated for 72 hours at 37° C. After 72 hours, the plate growth is subcultured onto five Columbia 5% sheep blood agar plates and is incubated as before. After another 72 hours of incubation, the plates are removed, and the plate growth is suspended in sterile 0.9% saline to an OD of 1.5-2.0 at 530 nm. This OD is approximately equal to 1.0e+09 CFU/mL, which is used to orally infect the mice on all 3 infection days. To infect mice, the mice are orally dosed 0.25 mL of the 1.0e+09 CFU/mL via a 20-22 G gavage needle. Mice need to be fasted only before the first infection.
At 1 week post-infection, mice are treated with Nu-8. Multiple dose antibiotic therapies are administered orally at 0.2 mL/dose. Antibiotics are administered 2 times per day and continued for 7 days. The control group is administered the vehicle alone.
Food is removed from cages 18 hours prior to euthanizing animals and each cage is clearly labeled that the animals are being experimentally fasted. Mice are euthanized (CO2 & cervical dislocation). […] The excised stomach is placed into a sterile petri dish and the luminal contents are rinsed away with sterile 1×PBS. Each rinsed stomach is placed into a 14-mL Falcon tube containing 2 mL of 1×PBS and stored on ice. Each stomach is homogenized, 10-fold serial diluted in 1×PBS, spot plated onto Columbia agar with 3.5% laked horse blood±the DENT selective antibiotic supplement, and microaerophilically incubated for 5 days at 37° C. Then, colonies are counted.
Nu-8 is administered at various doses (mg/kg), orally, twice-a-day for 7 days. The formulations, concentration and dose volumes for treatment is established prior to dosing. The positive control group consists of a triple therapy regimen (omeprazole, amoxicillin, and clarithromycin). Negative control used dosing solution without drugs.

For data set [2], the system named is methicillin resistant Staphylococcus aureus (USA300). It is filed as in vivo, SKH-1 hairless mice. As to conditions: for decrease in CFU burden: 6 hours post challenge. As for the experimental part:
SKH-1 hairless mice have the outer layer of skin cells removed by stripping with 7 applications and removals of surgical tape. Immediately following tape stripping, mice receive a topical inoculation of methicillin resistant Staphylococcus aureus (USA300) at a targeted challenge of 6.0 log10 CFU. Four hours following challenge, mice are treated with test articles or vehicle controls, and at two hours following treatment, mice have skin harvested for CFU burden enumeration.
SKH-1 mice are obtained from Charles River Laboratories. The age of the mice on Day 0 is approximately 6-8 weeks. Only female mice are selected for the study. Animals are handled in accordance with AUP number TP-18. Mice are housed in solid-bottom micro-isolator cages on stainless steel racks. Animals are fed irradiated Teklad Global 2918 Rodent Diet and water ad libitum. Bedding is provided in the form of irradiated Teklad ⅛″ corn cob bedding 7902. Animals are maintained in a bioBubble® Clean Room which provides H.E.P.A filtered air into the bubble environment at 100 complete air changes per hour. The environment is controlled to a temperature range of 74°±5° F. and a humidity range of 30-70%. Fluorescent lighting provides illumination for 12 hours per day. Mice are acclimated for a minimum of 24 hours prior to study start. The animals are observed for general health and acceptability for use in this study. Only animals deemed healthy are included in this study.
On Day 0 immediately prior to infection, each mouse is anesthetized using isoflurane and the dorsal area receives 7 applications and removals of Nexcare™ (3M) surgical tape in order to remove the outermost epidermal layer of skin.
The challenge microorganism is prepared. Methicillin resistant Staphylococcus aureus (USA300) is grown overnight at 37° C. at ambient atmosphere trypticase soy agar plates supplemented with 5% sheep blood cells. The culture is aseptically swabbed and transferred to tubes sterile water until optical density reaches approximately 0.75 at 600 nm. The cultures are diluted to provide challenge inoculate of 6.0 log10 CFU per mouse in a volume of 100 μL. Inoculum count is estimated before inoculation by optical density and confirmed after inoculation by dilution and back count.
On Day 0 at 0 hours, animals are anesthetized using isoflurane, brought to a surgical plane, and infected with bacteria via topical application, spread in the tape stripped area of approximately 0.75″×0.75″. Challenge is allowed to dry slightly before mice are brought out of anesthesia.
The test articles are prepared in a manner to minimize endotoxin and bacterial contamination. A 10% (100 mg/mL) solution of Nu-8 is prepared in 0.9% sterile saline. A 20% Nu-8 solution for 50/50 mixture in a hydrogel vehicle (for 10% final Nu-8 concentration) is made using sterile water. Citric acid is used to adjust the solutions to pH 3.5. The test articles are stored at 4° C.
A 0.9% sterile saline adjusted to pH 3.5 with citric acid is prepared as a vehicle/negative control and stored at room temperature. A hydrogel vehicle adjusted to pH 3.5 with citric acid is prepared as another vehicle/negative control. The hydrogel vehicle is prepared by mixing equal volumes of hydrogel and 0.9% sterile saline with final pH of the mixture adjusted to pH 3.5.
At exactly four hours following challenge, mice in Groups 2-5 receive a topical application of Nu-8 (in either saline or hydrogel vehicle), saline vehicle, or gel vehicle, in a volume of […] spread on the dorsal area previously stripped and inoculated with bacteria. […] Mice are housed individually following treatment until harvest time.
Mice are observed at least twice daily during the study period and are randomly assigned to experimental groups as shown in TABLE 10. At the time indicated in TABLE 10, mice are humanely euthanized via CO2 overexposure. Mice are harvested at 6 hours post challenge (2 hours post-treatment). […]

For the compound `CCCCOP(=O)(O)OC[C@H]1O[C@@H](n2ccc(N)nc2=O)C[C@@H]1OP(=O)(O)OCCCC` [Nu-8, sodium ((2R,3S,5R)-5-(4-amino-2-oxopyrimidin-1(2H)-yl)-3-((butoxyoxidophosphor-yl)oxy)tetrahydrofuran-2-yl)methyl butyl phosphate], the “mean bacterial stomach titers of H. pylori SS1 (Log10)” value in data set [1] (0.2 mg (1 mg/mL, 0.2 mL) PO bid for 7 days, +7 Days) is reported as 5.62 log10 CFU; in data set [1] (0.2 mg (1 mg/mL, 0.2 mL) PO bid for 7 days, +14 Days), 6.2 log10 CFU; in data set [1] (1.0 mg (5 mg/mL, 0.2 mL) PO bid for 7 days, +7 Days), 5.21 log10 CFU; in data set [1] (1.0 mg (5 mg/mL, 0.2 mL) PO bid for 7 days, +14 Days), 5.67 log10 CFU; in data set [1] (2 mg (10 mg/mL, 0.2 mL) PO bid for 7 days, +7 Days) it was 4.74 log10 CFU; in data set [1] (2 mg (10 mg/mL, 0.2 mL) PO bid for 7 days, +14 Days), 5.81 log10 CFU. Moreover, the “decrease in CFU burden” value in data set [2] (10% Nu-8 in hydrogel pH 3.5, topical) is listed as roughly 1.0 log10 reduction; in data set [2] (10% Nu-8 in saline pH 3.5, topical), roughly 1.0 log10 reduction. For the same compound, the “percentage reduction compared to the controls (FIG. 3)” value in data set [2] (Nu-8 gel) is on record as 87%; in data set [2] (Nu-8 saline), 90%. Further, the “colony forming units (FIG. 1)” value in data set [2] (Nu-8 hydrogel, two hours post treatment) is “approximately 40,000 CFU per square millimeter”; in data set [2] (Nu-8 in saline, two hours post treatment), “approximately 30,000 CFU per square millimeter”. In addition, the “reduction in bacteria vs saline and gel controls” value in data set [2] (Nu-8 in saline or hydrogel, two hours post treatment) is recorded as “ten-fold”. The “acute adverse events associated with the treatments” value in data set [2] (topical, 10% Nu-8 in saline or hydrogel) is “None of the study subjects displayed any acute adverse events”.
